One compound from US9895344B2, “Treating various disorders with 7,8-dihydroxyflavone and derivatives thereof” (EMORY UNIVERSITY, priority 2008, dated 2018) can be followed below.

Series [1] concerns KA-induced neuronal apoptosis. Nature of the series: Kainic acid time course assay, oral TrkB agonists (caspase-3 immunoblot of brain lysates). Type of series: in vivo, C57BL/6J mice. Conditions: 1 mg/kg orally, KA 20 mg/kg i.p., FIG. 30 left. The procedure: Male C57BL/6 mice age 60 days were orally injected with a single dose of 4′-DMA-7,8-DHF or 7,8-DHF (1 mg/kg each). KA (20 mg/kg) was i.p. injected. Animals were continually monitored for 2 hours for the onset of seizure activity. At 0, 4 and 8 hours following TrkB agonist treatment, the animals were sacrificed and the brain lysates were analyzed by immunoblotting with p-TrkB-Y817, active caspase-3 and total TrkB antibodies.
To investigate whether these compounds exert any neuroprotective effects in animals, a time course assay was conducted.

Series [2] addresses TrkB (Rattus norvegicus, UniProt Q63604). Nature of the series: TrkB activation in primary cortical neurons (p-TrkB Y817 immunoblotting). Type of series: cell-based. More on the design: endogenous in cells; host or cells: primary cortical neurons. The procedure:
Primary cultured rat cortical neurons were prepared as follows. E17 rat pups were decapitated and cortex was extirpated, cross chopped, and suspended by pipetting for separation in 5% fetal calf serum (FCS), 5% horse serum (HS) DMEM. The cell suspension was then centrifuged at 250×g for 5 minutes. This operation was repeated again. Cells were seeded into polyethyleneimine-coated 10 cm^2 dishes and 12-well plates including coated-coverslips and incubated at 37° C. in 5% CO2/95% air. After 3 hours, the culture medium was changed to Neurobasal containing B-27 supplement (Invitrogen; Carlsbad, Calif.) and incubated for 4 days. For maintenance, half of the culture medium was changed to fresh Neurobasal/B27 every 4 days. After 1 week, the dished cultured neurons were ready for use.
To compare the TrkB activation by the synthetic compounds of Examples 9 and 10 (see FIG. 26), primary cortical cultures were prepared. The cortical neurons were treated with 500 nM of various compounds for 30 min and collected the cell lysates. […] Replacing the H-bond acceptor O atom with hydrogen bond donor NH reduced its stimulatory effect. […] In comparison, 7,8-DHF provoked TrkB activation with the minimal concentration of 100 nM (FIG. 27, right panels).
Background: In western blotting, separated proteins are transferred to a membrane and probed.

In series [3] the test system is progenitor proliferation in hippocampus. In words: Neurogenesis analysis in hippocampus (BrdU). Conditions: 5 mg/kg daily for 21 days, compared to vehicle control, FIGS. 32 and 33. Type of series: in vivo, C57BL/6J mice. Here is the method:
Adult male mice (2-3 months old) were orally injected with saline, 4′-DMA-7,8-DHF and 7,8-DHF (5 mg/kg) for 21 days. Then BrdU (50 mg/kg) was i.p. injected. In 2 hours, the mice were perfused with 4% paraformaldehyde. Immunohistochemical staining was performed on formalin-fixed paraffin-embedded sections. Sections from brain were cut, deparaffinized in xylene and rehydrated in graded alcohols. The slides were boiled in 10 mM citric acid (pH 6.0) for 10 minutes followed by an incubation in 2 N HCl for 10 minutes in room temperature. The slides were then permeabilized and blocked with 1% BSA in 0.2% PBST. The incorporated BrdU were stained using anti-BrdU-FITC (Abcam, Inc; Cambridge, Mass.) at 4° C. for 16 hours. After three washes in PBS, the cells were stained with DAPI for another 10 minutes at room temperature. The slides were mounted with AquaMount (Lerner Laboratories; Pittsburgh, Pa.) containing 0.01% 1,4-diazobicyclo(2,2,2)octane and examined under a fluorescence microscope.
To test whether increasing TrkB activation by 4′-dimethylamino-7,8-dihydroxyflavone would elevate neurogenesis, adult male C57BL/6J mice were injected daily for 21 days with either vehicle, 7,8-DHF, or 4′-DMA-7,8-DHF (5 mg/kg). At the end of treatment (day 21), the animals were injected with BrdU (50 mg/kg, i.p.) to label the dividing cells and were sacrificed 2 hours later. […]

For series [4], the target named is T1, TrkB (Mus musculus, UniProt P15209).
T1 construct: from tissue; host or cells: mouse brain
Nature of the series: Time course of TrkB activation in mouse brain. It is filed as in vivo, C57BL/6J mice. The procedure: To compare the stimulatory effect on TrkB receptor in mouse brain, 1 mg/kg of these compounds was injected into C57BL/6J mice and monitored TrkB activation at different time points (see FIG. 28). […] In contrast, 7,8-DHF triggered TrkB activation 2 h after oral injection and peaked at 4 h and TrkB activity progressively faded away. The TrkB activity was demonstrable even at 16 h (FIG. 28).

The subject of a further series is caspase-3 activation. Nature of the series: Active caspase-3 ELISA in glutamate-treated cortical neurons. Type of series: cell-based, rat. To be noted: 50 μM glutamate for 16 hours. Here is the method: To quantitatively compare the anti-apoptotic activity of 7,8-DHF and 4′-DMA-7,8-DHF, cortical neurons were prepared from E16 rat embryonic cells and pretreated with various indicated concentrations of 4′-DMA-7,8-DHF and 7,8-DHF for 30 min, followed by 50 μM glutamate for 16 hours. The cell lysates were quantitatively analyzed with an active caspse-3 ELISA.

For another series, the system named is immobility. Nature of the series: Forced swim test after 21 days oral treatment. Type of series: in vivo, C57BL/6J mice. Conditions: 5 mg/kg, oral injection, FIG. 34. The procedure: Adult male mice (2-3 months old) were randomly submitted to a forced swim test without a pre-swim. Saline, 4′-DMA-7,8-DHF and 7,8-DHF (5 mg/kg) were orally injected for 21 days. The mice were allowed to adapt to the test room for 2 days. The mice were placed in a clear glass cylinder with a diameter of 16 cm, half-filled with clear water at 24° C.
(§1) To explore whether 4′-DMA-7,8-DHF and 7,8-DHF have any antidepressant effect, a forced swim test (6 minutes, immobility recorded in the last 4 minutes) was conducted after chronic treatment of male C57BL/6J mice (8 mice/group) for 21 days via oral injection.

Series [5] deals with T1, TrkB. In words: Immunoblotting of brain lysates from forced swim test mice: TrkB. It is filed as in vivo. To be noted: 5 mg/kg, 21 days oral, anti-p-TrkB 817, FIG. 35. The procedure: as §1
Series [6] in a line: Toxicity after 3-week chronic treatment (organ pathology, complete blood count). Type of series: in vivo, mice. To be noted: mouse, in vivo. The procedure:
To explore whether 4′-dimethylamino-7,8-dihydroxyflavone and 7,8-dihydroxyflavone have any intolerable toxicity, the major organs from mice treated with both compounds at 5 mg/kg/day for 3 weeks were analyzed.

For series [7], the system named is KA-induced caspase-3 activation. Nature of the series: KA-induced neuronal cell death in TrkB F616A mice, oral TrkB agonists. Type of series: in vivo, TrkB F616A knock-in mice. The procedure: TrkB F616A knockin mice (2-3 months old) were fed 1NMPP1 (25 μM) in drinking water one day before pharmacological reagent treatment. The next day, the mice were orally injected with 7,8-DHF or 4′-DMA-7,8-DHF (5 mg/kg) 4 hours before kainic acid (20 mg/kg). The control mice were injected with saline, 1NMPP1, kainic acid alone or administrated 7,8-DHF or 4′-DMA-7,8-DHF 4 hours before kainic acid. In 4 days, the mice were sacrificed and brains were homogenized and ultra-centrifuged. The supernatant (40 μg) was employed for SDS-PAGE and immunoblotting analysis with indicated antibodies, respectively.
To explore whether the neuroprotective effect of these small molecules is dependent on TrkB activation in vivo, TrkB F616A knock-in mice were used.

The target in the next series is TrkA (Mus musculus, UniProt Q3UFB7). In words: Immunoblotting of brain lysates from forced swim test mice: TrkA. It is filed as in vivo. Also noted: from tissue; host or cells: mouse brain. To be noted: 5 mg/kg, 21 days oral, anti-p-TrkA 794, FIG. 35. The procedure:
as §1

The next series relates to immobility time. In words: Forced swim test in TrkB F616A knockin mice with saline or 1NMPP1 pretreatment. Type of series: in vivo. To be noted: drugs for five days, FIG. 36. The procedure:
To assess whether the behavior responses by 7,8-DHF and its derivative are mediated by TrkB receptor, TrkB F616A knockin mice were utilized. The transgenic mice were subjected to saline or 1NMPP1 pretreatment (25 μM), respectively (drinking water provided one day prior to drug injection and maintained throughout whole experiment). The control and/or drugs were provided for five days. […] (Data presented in FIGS. 34, 35, and 36 as mean±SEM; *p<0.05 against vehicle, #P<0.01 against vehicle and ***P<0.0001 against vehicle, student t-test.)

The mark [8] stands for this setting: 1 mg/kg, oral injection, FIG. 28.

T1 sequence (P15209 32-821): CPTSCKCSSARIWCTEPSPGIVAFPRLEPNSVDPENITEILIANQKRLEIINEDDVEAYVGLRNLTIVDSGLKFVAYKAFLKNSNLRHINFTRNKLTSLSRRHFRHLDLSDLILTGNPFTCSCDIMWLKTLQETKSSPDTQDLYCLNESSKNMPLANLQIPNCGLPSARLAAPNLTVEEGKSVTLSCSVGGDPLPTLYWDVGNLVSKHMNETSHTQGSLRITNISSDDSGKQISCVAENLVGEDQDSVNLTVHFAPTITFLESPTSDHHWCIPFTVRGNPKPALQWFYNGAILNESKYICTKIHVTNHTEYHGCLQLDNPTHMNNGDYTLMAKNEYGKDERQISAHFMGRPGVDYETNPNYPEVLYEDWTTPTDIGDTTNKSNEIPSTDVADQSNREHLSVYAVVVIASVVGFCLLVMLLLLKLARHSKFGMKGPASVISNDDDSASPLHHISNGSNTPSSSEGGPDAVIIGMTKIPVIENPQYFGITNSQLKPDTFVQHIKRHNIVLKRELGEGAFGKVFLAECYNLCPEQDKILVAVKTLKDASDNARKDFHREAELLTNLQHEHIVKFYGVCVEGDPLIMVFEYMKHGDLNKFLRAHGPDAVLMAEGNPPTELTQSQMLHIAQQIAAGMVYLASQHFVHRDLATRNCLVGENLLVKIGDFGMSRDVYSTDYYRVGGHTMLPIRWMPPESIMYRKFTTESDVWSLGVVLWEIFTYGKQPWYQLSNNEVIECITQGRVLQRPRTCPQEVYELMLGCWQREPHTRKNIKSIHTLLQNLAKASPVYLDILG
Sequence of TrkB (Rattus norvegicus, UniProt Q63604) (Q63604 32-821): as the sequence (P15209 32-821) above, with T3M, S9T, A10T, V32I, R63K, S84G, M153T, L185I, S394T, S770N counted along it
Sequence of TrkA (Q3UFB7 34-799): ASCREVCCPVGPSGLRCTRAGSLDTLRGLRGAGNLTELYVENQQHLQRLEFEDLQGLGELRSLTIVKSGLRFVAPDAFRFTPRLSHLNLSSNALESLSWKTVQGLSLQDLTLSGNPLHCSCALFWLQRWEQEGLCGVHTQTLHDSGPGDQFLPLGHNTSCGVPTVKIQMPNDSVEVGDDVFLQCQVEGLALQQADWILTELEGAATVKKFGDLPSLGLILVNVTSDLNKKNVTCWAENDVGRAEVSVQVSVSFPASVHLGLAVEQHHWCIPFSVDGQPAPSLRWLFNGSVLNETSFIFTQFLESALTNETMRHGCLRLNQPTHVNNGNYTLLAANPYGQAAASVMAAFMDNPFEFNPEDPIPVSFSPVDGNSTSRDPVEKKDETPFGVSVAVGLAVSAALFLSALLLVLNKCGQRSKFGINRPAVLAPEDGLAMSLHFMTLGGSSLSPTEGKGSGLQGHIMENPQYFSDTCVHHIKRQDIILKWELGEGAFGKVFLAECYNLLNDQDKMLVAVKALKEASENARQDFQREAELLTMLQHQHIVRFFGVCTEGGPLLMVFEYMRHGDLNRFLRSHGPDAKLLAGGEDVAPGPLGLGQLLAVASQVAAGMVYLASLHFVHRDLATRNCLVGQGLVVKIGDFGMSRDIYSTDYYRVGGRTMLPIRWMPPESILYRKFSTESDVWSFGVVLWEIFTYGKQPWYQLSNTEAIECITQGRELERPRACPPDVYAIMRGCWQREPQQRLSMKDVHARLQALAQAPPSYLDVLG

Take `CN(C)c1ccc(-c2cc(=O)c3ccc(O)c(O)c3o2)cc1` [4′-DMA-7,8-DHF, 4′-Dimethylamino-7,8-dihydroxyflavone]: in series [1], the “KA-induced neuronal apoptosis over time” value was “gradually decreased”. Besides, the TrkB activation result at TrkB [2] (500 nM, 30 min, FIG. 27 left) was “robustly provoked TrkB activation”. In addition, the “minimal concentration triggering TrkB activation (titration assay)” value on TrkB [2] (FIG. 27 right) is reported as 10 nM. Also, in [3], the “neurogenesis (BrdU)” value is on record as “increased neurogenesis”. For the same compound, at TrkB [4] (setting [8]), the “TrkB activity at 16 h” value is recorded as “partially decayed”, the “time at which TrkB activation was elicited” value was determined as 1 h and the “time at which TrkB activity peaked” value is given as 8 h. Also, at TrkB [4] (mouse, in vivo), the “agonistic effect on TrkB relative to 7,8-DHF” value is listed as “about 10 fold” and the “duration of agonistic effect in animals relative to 7,8-DHF” value is “sustained longer”. Further, the “inhibitory effect on caspase-3 activation at 10 nM” value with caspase-3 activation (10 nM) is reported as “more robust inhibitory effect than 7,8-DHF”. In the series on caspase-3 activation (50 nM or higher concentrations, FIG. 29), the “Glutamate-provoked caspase-3 activation” value is on record as “substantially blocked”. Further, the swimming immobility entry in the series on immobility was “evidently reduced the immobility”. On TrkB [5], the “TrkB activation in mouse brain” value is on record as “provoke TrkB”. Besides, in [6], the “complete blood count (CBC) versus control saline-treated mice” value was “no significant difference” and the “toxicity to the mice” value is listed as “neither compound was toxic”. In addition, the “KA-caused caspase-3 activation” value in [7] (5 mg/kg orally 4 hours before kainic acid (20 mg/kg), FIG. 31) is on record as “markedly diminished”. The “protective effect after 1NMPP1 pretreatment” value in [7] (1NMPP1 (25 μM) in drinking water, FIG. 31 top) is listed as “abolished”. Moreover, the “TrkB phosphorylation after 1NMPP1 pretreatment” value in series [7] (FIG. 31, 2nd panel) is “notably blocked”. For the same compound, on TrkA, the “TrkA activation in mouse brain” value was “not TrkA activation”. Further, in the series on immobility time (1NMPP1 25 μM in drinking water), the “immobility time after 1NMPP1 treatment” value was “neither 4′-DMA-7,8-DHF nor 7,8-DHF had any significant effect”. Besides, in the series with immobility time, the “immobility time, saline group” value is “substantially reduced the immobility time”.
